Experimental data from patent US4175123A, “Amino-sugar derivatives, process for their preparation and pharmaceutical composition thereof” (Bayer Aktiengesellschaft, priority 1976, dated 1979).

How the values were obtained:
[1] = test system: glucosidase; assay: Sucrose feeding test: postprandial blood sugar after oral sucrose + glucosidase inhibitor in fasting rats; type: in vivo, rat
Description: (§1) The in vivo activity of the compound was tested on some examples using the experimental arrangement described in the following text.
(§2) Oral administration of starch or sucrose causes a rise in the blood sugar in warm-blooded animals, provided that the carbohydrates are enzymatically degraded in the small intestine to monosaccharides. The inhibition of their enzymatic hydrolysis by glucosidase inhibitors causes a reduced rise in the blood sugar.
(§3) In order to detect the action of glucosidase inhibitors, 6 fasting rats receive perorally, 1 g of broiled starch or 2.5 g of sucrose/kg in the form of an aqueous suspension or in the form of an aqueous solution (starch and sucrose control respectively). An equal number of rats receive the glucosidase inhibitor in the dose indicated, together with the same amount of the carbohydrate concerned. An equal volume of physiological sodium chloride solution is administered orally to a further six rats (control). After administration of the carbohydrate concerned±glucosidae inhibitor, the postprandial change in blood sugar is measured, at the times indicated, in blood from the postorbital venous plexus in an auto-analyser according to the method of W. S. Hoffmann [J biol. Chem 120, 51 (1937)].

[2] = test system: glucosidase; assay: Starch feeding test: postprandial blood sugar after oral starch + glucosidase inhibitor in fasting rats; type: in vivo, rat; conditions: for Blood sugar ± standard deviation, 45 minutes: starch control 120 ± 7.9, fasting control 102 ± 6.7; for Blood sugar ± standard deviation, 60 minutes: starch control 118 ± 6.9, fasting control 88 ± 7.4
Description: as §1, §2, §3

[3] = 10 mg/kg perorally + 2.5 g sucrose/kg, sucrose control 113 ± 6.5, fasting control 61 ± 13
[4] = 10 mg/kg perorally + 2.5 g sucrose/kg, sucrose control 116 ± 9.2, fasting control 65 ± 3.9
[5] = 10 mg/kg perorally + 2.5 g sucrose/kg, sucrose control 104 ± 12, fasting control 66 ± 6.9
[6] = 10 mg/kg perorally + 2.5 g sucrose/kg, sucrose control 123 ± 8.1, fasting control 76 ± 3.7
[7] = 10 mg/kg perorally + 1 g starch/kg, starch control 146 ± 19, fasting control 82 ± 12
[8] = 10 mg/kg perorally + 1 g starch/kg, starch control 144 ± 8.9, fasting control 72 ± 10
[9] = 10 mg/kg perorally + 1 g starch/kg

Row | Structure (SMILES) | Blood sugar ± standard deviation, 15 minutes [1, 3] | Blood sugar ± standard deviation, 30 minutes [1, 4] | Blood sugar ± standard deviation, 45 minutes [1, 5] | Blood sugar ± standard deviation, 60 minutes [1, 6] | Blood sugar ± standard deviation, 15 minutes [2, 7] | Blood sugar ± standard deviation, 30 minutes [2, 8] | Blood sugar ± standard deviation, 45 minutes [2, 9] | Blood sugar ± standard deviation, 60 minutes [2, 9] | also measured
1 | C[C@H]1O[C@H](O[C@H]2[C@H](O)[C@@H](O)[C@@H](O[C@H]3[C@H](O)[C@@H](O)[C@H](Oc4ccc([N+](=O)[O-])cc4)O[C@@H]3CO)O[C@@H]2CO)[C@H](O)[C@@H](O)[C@@H]1N[C@H]1C=C(CO)[C@@H](O)[C@H](O)[C@H]1O [Compound 1, p-Nitrophenyl-O-{C}-(1→4)-O-α-D-glcp-(1→4)-β-D-glucopyranoside] | – | – | – | – | – | – | – | – | Blood sugar ± standard deviation, 15 minutes ([1]; 0.86 mg/kg perorally + 2.5 g sucrose/kg, sucrose control 128 ± 8.0, fasting control 60 ± 4.6): 103 ± 6.4 mg/dL; Blood sugar ± standard deviation, 30 minutes ([1]; 0.86 mg/kg perorally + 2.5 g sucrose/kg, sucrose control 133 ± 8.7, fasting control 64 ± 3.7): 110 ± 10 mg/dL; Blood sugar ± standard deviation, 45 minutes ([1]; 0.86 mg/kg perorally + 2.5 g sucrose/kg, sucrose control 134 ± 6.1, fasting control 73 ± 7.1): 108 ± 13 mg/dL; Blood sugar ± standard deviation, 60 minutes ([1]; 0.86 mg/kg perorally + 2.5 g sucrose/kg, sucrose control 119 ± 10, fasting control 66 ± 4.2): 107 ± 11 mg/dL; Blood sugar ± standard deviation, 15 minutes ([2]; 0.86 mg/kg perorally + 1 g starch/kg, starch control 131 ± 7.2, fasting control 60 ± 4.2): 93 ± 6.4 mg/dL; Blood sugar ± standard deviation, 30 minutes ([2]; 0.86 mg/kg perorally + 1 g starch/kg, starch control 113 ± 9.2, fasting control 62 ± 3.4): 84 ± 12 mg/dL
2 | C[C@H]1O[C@H](O[C@H]2[C@H](O)[C@@H](O)[C@@H](O[C@H]3[C@H](O)[C@@H](O)[C@H](Oc4ccccc4)O[C@@H]3CO)O[C@@H]2CO)[C@H](O)[C@@H](O)[C@@H]1N[C@H]1C=C(CO)[C@@H](O)[C@H](O)[C@H]1O [Compound 2, Phenyl-O-{C}-(1→4)-O-α-D-glcp-(1→4)-β-D-glucopyranoside] | 79 ± 4.1 mg/dL | 86 ± 10 mg/dL | 74 ± 7.2 mg/dL | 71 ± 15 mg/dL | 102 ± 10 mg/dL | 73 ± 9.1 mg/dL | 100 ± 6.5 mg/dL | 108 ± 9.3 mg/dL | –
3 | C[C@H]1O[C@H](O[C@H]2[C@H](O)[C@@H](O)[C@@H](O[C@H]3[C@H](O)[C@@H](O)[C@H](Oc4cccc(O)c4)O[C@@H]3CO)O[C@@H]2CO)[C@H](O)[C@@H](O)[C@@H]1N[C@H]1C=C(CO)[C@@H](O)[C@H](O)[C@H]1O [Compound 3, m-Hydroxyphenyl-O-{C}-(1→4)-O-α-D-glcp-(1→4)-β-D- glucopyranoside] | – | – | – | – | – | – | – | – | Blood sugar ± standard deviation, 15 minutes ([1]; 0.92 mg/kg perorally + 2.5 g sucrose/kg, sucrose control 128 ± 8.0, fasting control 60 ± 4.6): 97 ± 10 mg/dL; Blood sugar ± standard deviation, 30 minutes ([1]; 0.92 mg/kg perorally + 2.5 g sucrose/kg, sucrose control 133 ± 8.7, fasting control 64 ± 3.7): 108 ± 4.2 mg/dL; Blood sugar ± standard deviation, 45 minutes ([1]; 0.92 mg/kg perorally + 2.5 g sucrose/kg, sucrose control 134 ± 6.1, fasting control 73 ± 7.1): 112 ± 15 mg/dL; Blood sugar ± standard deviation, 60 minutes ([1]; 0.92 mg/kg perorally + 2.5 g sucrose/kg, sucrose control 119 ± 10, fasting control 66 ± 4.2): 111 + 11 mg/dl; Blood sugar ± standard deviation, 15 minutes ([2]; 0.92 mg/kg perorally + 1 g starch/kg, starch control 131 ± 7.2, fasting control 60 ± 4.2): 89 ± 8.0 mg/dL; Blood sugar ± standard deviation, 30 minutes ([2]; 0.92 mg/kg perorally + 1 g starch/kg, starch control 113 ± 9.2, fasting control 62 ± 3.4): 97 ± 13 mg/dL
4 | COC(=O)c1cccc(O[C@@H]2O[C@H](CO)[C@@H](O[C@H]3O[C@H](CO)[C@@H](O[C@H]4O[C@H](C)[C@@H](N[C@H]5C=C(CO)[C@@H](O)[C@H](O)[C@H]5O)[C@H](O)[C@H]4O)[C@H](O)[C@H]3O)[C@H](O)[C@H]2O)c1 [Compound 4, m-Carbomethoxyphenyl-O-{C}-(1→4)-O-α-D-glcp-(1→4)-β-D-glucopyranoside] | – | – | – | – | – | – | – | – | Blood sugar ± standard deviation, 15 minutes ([1]; 1.56 mg/kg perorally + 2.5 g sucrose/kg, sucrose control 128 ± 8.0, fasting control 60 ± 4.6): 95 ± 7.0 mg/dL; Blood sugar ± standard deviation, 30 minutes ([1]; 1.56 mg/kg perorally + 2.5 g sucrose/kg, sucrose control 133 ± 8.7, fasting control 64 ± 3.7): 112 ± 5.5 mg/dL; Blood sugar ± standard deviation, 45 minutes ([1]; 1.56 mg/kg perorally + 2.5 g sucrose/kg, sucrose control 134 ± 6.1, fasting control 73 ± 7.1): 104 ± 6.7 mg/dL; Blood sugar ± standard deviation, 60 minutes ([1]; 1.56 mg/kg perorally + 2.5 g sucrose/kg, sucrose control 119 ± 10, fasting control 66 ± 4.2): 115 ± 7.0 mg/dL; Blood sugar ± standard deviation, 15 minutes ([2]; 1.56 mg/kg perorally + 1 g starch/kg, starch control 131 ± 7.2, fasting control 60 ± 4.2): 99 ± 8.1 mg/dL; Blood sugar ± standard deviation, 30 minutes ([2]; 1.56 mg/kg perorally + 1 g starch/kg, starch control 113 ± 9.2, fasting control 62 ± 3.4): 97 ± 10 mg/dL
5 | COC(=O)c1ccc(O[C@@H]2O[C@H](CO)[C@@H](O[C@H]3O[C@H](CO)[C@@H](O[C@H]4O[C@H](C)[C@@H](N[C@H]5C=C(CO)[C@@H](O)[C@H](O)[C@H]5O)[C@H](O)[C@H]4O)[C@H](O)[C@H]3O)[C@H](O)[C@H]2O)cc1 [Compound 6, p-Carbomethoxyphenyl-O-{C}-(1→4)-O-α-D-glcp-(1→5)-β-D-glucopyranoside] | – | – | – | – | – | – | – | – | Blood sugar ± standard deviation, 15 minutes ([1]; 0.78 mg/kg perorally + 2.5 g sucrose/kg, sucrose control 128 ± 8.0, fasting control 60 ± 4.6): 96 ± 15 mg/dL; Blood sugar ± standard deviation, 30 minutes ([1]; 0.78 mg/kg perorally + 2.5 g sucrose/kg, sucrose control 133 ± 8.7, fasting control 64 ± 3.7): 100 ± 3.4 mg/dL; Blood sugar ± standard deviation, 45 minutes ([1]; 0.78 mg/kg perorally + 2.5 g sucrose/kg, sucrose control 134 ± 6.1, fasting control 73 ± 7.1): 106 ± 18 mg/dL; Blood sugar ± standard deviation, 60 minutes ([1]; 0.78 mg/kg perorally + 2.5 g sucrose/kg, sucrose control 119 ± 10, fasting control 66 ± 4.2): 117 ± 6.5 mg/dL; Blood sugar ± standard deviation, 15 minutes ([2]; 0.78 mg/kg perorally + 1 g starch/kg, starch control 131 ± 7.2, fasting control 60 ± 4.2): 110 ± 6.1 mg/dL; Blood sugar ± standard deviation, 30 minutes ([2]; 0.78 mg/kg perorally + 1 g starch/kg, starch control 113 ± 9.2, fasting control 62 ± 3.4): 105 ± 10 mg/dL
6 | C[C@H]1O[C@H](O[C@H]2[C@H](O)[C@@H](O)[C@H](Oc3ccccc3)O[C@@H]2CO)[C@H](O)[C@@H](O)[C@@H]1N[C@H]1C=C(CO)[C@@H](O)[C@H](O)[C@H]1O [Compound 13, Phenyl-O-C-(1→4)-β-D-glucopyranoside] | 79 ± 6.8 mg/dL | 80 ± 5.4 mg/dL | 85 ± 16 mg/dL | 86 ± 2.0 mg/dL | 70 ± 8.3 mg/dL | 40 ± 6.8 mg/dL | 89 ± 9.0 mg/dL | 100 ± 4.6 mg/dL | –
7 | CCO[C@@H]1O[C@H](CO)[C@@H](O[C@H]2O[C@H](C)[C@@H](N[C@H]3C=C(CO)[C@@H](O)[C@H](O)[C@H]3O)[C@H](O)[C@H]2O)[C@H](O)[C@H]1O [Compound 15, Ethyl-O-{C}-(1→4)-β-D-glucopyranoside] | 80 ± 6.1 mg/dL | 83 ± 9.4 mg/dL | 87 ± 4.8 mg/dL | 94 ± 13 mg/dL | – | – | – | – | –
8 | C[C@H]1O[C@H](O[C@H]2[C@H](O)[C@@H](O)[C@H](OCc3ccccc3)O[C@@H]2CO)[C@H](O)[C@@H](O)[C@@H]1N[C@H]1C=C(CO)[C@@H](O)[C@H](O)[C@H]1O [Compound 20, Benzyl-O-{C}-(1→4)-β-D-glucopyranoside] | 83 ± 20 mg/dL | 85 ± 8.3 mg/dL | 73 ± 8.5 mg/dL | 69 ± 9.3 mg/dL | 87 ± 12 mg/dL | 83 ± 13 mg/dL | 99 ± 17 mg/dL | 111 ± 5.6 mg/dL | –
9 | C[C@H]1O[C@H](O[C@H]2[C@H](O)[C@@H](O)[C@@H](O[C@@H]([C@H](O)[C@@H](O)CO)[C@H](O)CO)O[C@@H]2CO)[C@H](O)[C@@H](O)[C@@H]1N[C@H]1C=C(CO)[C@@H](O)[C@H](O)[C@H]1O [Compound 22] | – | – | – | – | – | – | – | – | Blood sugar ± standard deviation, 15 minutes ([1]; 1.54 mg/kg perorally + 2.5 g sucrose/kg, sucrose control 134 ± 13, fasting control 71 ± 3.7): 80 ± 3.7 mg/dL; Blood sugar ± standard deviation, 30 minutes ([1]; 1.54 mg/kg perorally + 2.5 g sucrose/kg, sucrose control 116 ± 20, fasting control 70 ± 5.3): 79 ± 5.2 mg/dL; Blood sugar ± standard deviation, 45 minutes ([1]; 1.54 mg/kg perorally + 2.5 g sucrose/kg, sucrose control 125 ± 8.6, fasting control 77 ± 5.5): 86 ± 4.5 mg/dL; Blood sugar ± standard deviation, 60 minutes ([1]; 1.54 mg/kg perorally + 2.5 g sucrose/kg, sucrose control 112 ± 15, fasting control 78 ± 7.3): 86 ± 11 mg/dL
